Data published in patent US5641480A, “Hair care compositions comprising heteroatom containing alkyl aldonamide compounds” (Lever Brothers Company, Division of Conopco, Inc., priority 1994, dated 1997).

What was measured:
[1] = Ross-Miles foam height assay of aldonamides (Examples 81-84); format: physicochemical; conditions: 0.1% aldonamide, 40° C. (if not soluble, about 5°-10° C. above Krafft point), 0 ppm hardness; for Foam Height Final: after 10 minutes
Experimental: In the Ross-Miles method, 200 mL of a suffactant solution contained in a pipette of specified dimensions with a 2.9 -mm-i.d. orifice is allowed to fall 90 cm onto 50 mL of the same solution contained in a cylindrical vessel maintained at a given temperature by means of a water jacket. The height of the foam produced in the cylindrical vessel is read immediately after all the solution has run out of the pipette and then again after a given amount of time.
Using this method, the foam production (initial foam height in mm) and foam stability (final foam height after 10 minutes in mm) were measured at 0.1% aldonamtde concentration, 40° C. and 0 ppm (parts per million) hardness.

[2] = Krafft point determination; format: physicochemical; conditions: 0.1% in water
Experimental: The temperature at and above which surfactants begin to form micelles instead of precipitates is referred to as the Krafft point (Tk) and at this temperature the solubility of a surfactant becomes equal to its CMC (numerical value at which micelles are formed).
The Krafft point was measured by preparing 650 ml of a 0.1% or 1.0% dispersion of aldonamide in water by weight. If the surfactant was soluble at room temperature, the solution was slowly cooled to 0° C. […] (less than zero). If it precipitated out of solution, the temperature at which precipitation occurs was taken as the Krafft point.
If the surfactant was insoluble at room temperature, the dispersion was slowly heated until the solution became homogeneous. It was then slowly cooled until precipitation occurred. The temperature at which the surfactant precipitates out of solution upon cooling was taken as the Krafft point.

Compound	Foam Height Initial [1]	Foam Height Final [1]	Krafft Point (0.1%) [2]
CCCCCCCCCCCCOC(=O)C(C)NC(=O)[C@H](O)[C@@H](O)[C@H](O)[C@H](O)CO (mixture of isomers) [N--D-Gluconyl C12 DL-Alaninate, N-D-Gluconyl Dodecyl DL-Alaninate]	197 mm	112 mm	–
CCCCCCCNC(=O)[C@H](O)[C@@H](O)[C@H](O)[C@H](O)CO [C7 D-Gluconamide]	0 mm	0 mm	–
CCCCCCCCNC(=O)[C@H](O)[C@@H](O)[C@H](O)[C@H](O)CO [C8 D-Gluconamide]	0 mm	0 mm	–
CCCCCCCCCNC(=O)[C@H](O)[C@@H](O)[C@H](O[C@@H]1O[C@H](CO)[C@H](O)[C@H](O)[C@H]1O)[C@H](O)CO [C9 D-Lactobionamide, Nonyl D-Lactobionamide]	0 mm	0 mm	42 °C
CCCCCCCCCCCNC(=O)[C@H](O)[C@@H](O)[C@H](O[C@@H]1O[C@H](CO)[C@H](O)[C@H](O)[C@H]1O)[C@H](O)CO [C11 D-Lactobionamide]	0 mm	0 mm	61 °C
CCCCCCCCCCCCNC(=O)[C@H](O)[C@@H](O)[C@@H](O)[C@H](O)CO [C12 D-Galactonamide]	Insoluble	–	–
CCCCCCCCCCCCNC(=O)C(O)C(O)C(O)C(O)C(O)C(O)CO [C12 D-Glucooctonamide]	–	–	86 °C
CCCCCCCCCCCCNC(=O)[C@H](O)[C@H](O)[C@@H](O)[C@@H](O)[C@H](O)CO [C12 D-Glycero-L-Mannoheptonamide]	Insoluble	–	–
CCCCCCCCCCCCNC(=O)[C@H](O)[C@@H](O)[C@H](O[C@@H]1O[C@H](CO)[C@H](O)[C@H](O)[C@H]1O)[C@H](O)CO [C12 D-Lactobionamide]	153 mm	20 mm	38 °C
CCCCCCCCCCCCNC(=O)[C@@H](O)[C@H](O)[C@H](O)[C@@H](O)CO [C12 L-Galactonamide]	Insoluble	–	–
CCCCCCCCCCCCNC(=O)[C@H](O)[C@H](O)[C@@H](O)[C@@H](O)CO [C12 L-Mannonamide]	Insoluble	–	–
CCCCCCCCCCCCOCCCNC(=O)[C@H](O)[C@H](O)[C@@H](O)[C@H](O)[C@H](O)CO [C12 Oxypropyl D-Glucoheptonamide]	245 mm	80 mm	–
CCCCCCCCCCCCOCCCNC(=O)[C@H](O)[C@@H](O)[C@H](O[C@H]1O[C@H](CO)[C@@H](O)[C@H](O)[C@H]1O)[C@H](O)CO [C12 Oxypropyl D-Maltobionamide, Dodecyloxypropyl D-Maltobionamide]	163 mm	155 mm	< 0 °C
CCCCCCCCCCCCNC(=O)[C@H](O)[C@H](O)[C@H](O)CO [C12 Ribonamide, Dodecyl D-Ribonamide]	184 mm	103 mm	–
CCCCCCCCCCCCCNC(=O)[C@H](O)[C@@H](O)[C@H](O[C@@H]1O[C@H](CO)[C@H](O)[C@H](O)[C@H]1O)[C@H](O)CO [C13 D-Lactobionamide]	–	–	70 °C
CCCCCCCCCCCCCCNC(=O)[C@H](O)[C@@H](O)[C@H](O)[C@H](O)CO [C14 D-Gluconamide]	Insoluble	–	–
CCCCCCCCCCCCCCNC(=O)[C@H](O)[C@@H](O)[C@H](O[C@@H]1O[C@H](CO)[C@H](O)[C@H](O)[C@H]1O)[C@H](O)CO [C14 D-Lactobionamide]	141 mm	59 mm	18 °C
CCCCCCCCCCCCCCNC(=O)[C@H](O)[C@@H](O)[C@H](O[C@H]1O[C@H](CO)[C@@H](O)[C@H](O)[C@H]1O)[C@H](O)CO [C14 D-Maltobionamide]	–	–	46 °C
CCCCCCCCCCCCCCOCCCNC(=O)[C@H](O)[C@@H](O)[C@H](O)[C@H](O)CO [C14 Oxypropyl D-Gluconamide]	203 mm	101 mm	–
CCCCCCCCCCCCCCOCCCNC(=O)[C@H](O)[C@@H](O)[C@H](O[C@@H]1O[C@H](CO)[C@H](O)[C@H](O)[C@H]1O)[C@H](O)CO [C14 Oxypropyl D-Lactobionamide, Tetradecyloxypropyl D-Lactobionamide]	163 mm	154 mm	< 0 °C

Compound	Foam Height Initial [1]	Foam Height Final [1]	Krafft Point (0.1%) [2]
CCCCCCCCCCCCCCCNC(=O)[C@H](O)[C@@H](O)[C@H](O[C@@H]1O[C@H](CO)[C@H](O)[C@H](O)[C@H]1O)[C@H](O)CO [C15 D-Lactobionamide]	–	–	84 °C
CCCCCCCCCCCCCCCCNC(=O)[C@H](O)[C@@H](O)[C@H](O)[C@H](O)CO [C16 D-Gluconamide]	Insoluble	–	–
CCCCCCCCCCCCCCCCNC(=O)[C@H](O)[C@@H](O)[C@H](O[C@@H]1O[C@H](CO)[C@H](O)[C@H](O)[C@H]1O)[C@H](O)CO [C16 D-Lactobionamide]	95 mm	95 mm	64 °C
CCCCCCCCCCCCCCCCCCNC(=O)[C@H](O)[C@@H](O)[C@H](O)[C@H](O)CO [C18 D-Gluconamide]	Insoluble	–	–
CCCCCCCCCCCCCCCCCCNC(=O)[C@H](O)[C@@H](O)[C@H](O[C@@H]1O[C@H](CO)[C@H](O)[C@H](O)[C@H]1O)[C@H](O)CO [C18 D-Lactobionamide]	–	–	82 °C
CCCCCCCCCCCCOC(=O)CNC(=O)[C@H](O)[C@@H](O)[C@H](O[C@@H]1O[C@H](CO)[C@H](O)[C@H](O)[C@H]1O)[C@H](O)CO [D-Lactobionyl C12 Glycinate, N-D-Lactobionyl Dodecyl Glycinate]	161 mm	153 mm	< 0 °C
CCCCCCCCCCCCOC(=O)CCNC(=O)[C@H](O)[C@@H](O)[C@H](O[C@@H]1O[C@H](CO)[C@H](O)[C@H](O)[C@H]1O)[C@H](O)CO [D-Lactobionyl C12 β-Alaninate, N-D-Lactobionyl Dodecyl β-Alaninate]	159 mm	152 mm	< 0 °C
CCCCC(CC)COCCCNC(=O)[C@H](O)[C@@H](O)[C@H](O)[C@H](O)CO (stereo partly drawn) [Ethylhexyloxypropyl D-Gluconamide]	0 mm	0 mm	–
CCCCCCCCCCCCOCCOCCOC(=O)CNC(=O)[C@H](O)[C@@H](O)[C@H](O)[C@H](O)CO [N--D-Gluconyl C12 Di(oxyethyl) Glycinate, N-D-Gluconyl Dodecyldi(oxyethyl) Glycinate]	203 mm	169 mm	–
CCCCCCCCCCCC(=O)OCCNC(=O)[C@H](O)[C@@H](O)[C@H](O)[C@H](O)CO [N--D-Gluconyl C12 Ester of Ethanolamine, N-D-gluconyl dodecyl ester of ethanolamine]	185 mm	111 mm	–
CCCCCCCCCCCCOC(=O)CNC(=O)[C@H](O)[C@@H](O)[C@H](O)[C@H](O)CO [N--D-Gluconyl C12 Glycinate, N-D-Gluconyl Dodecyl Glycinate]	183 mm	107 mm	–
CCCCCCCC/C=C\CCCCCCCCNCCCNC(=O)[C@H](O)[C@@H](O)[C@H](O)[C@H](O)CO [Oleylaminopropyl D-Gluconamide]	158 mm	84 mm	–
CCCCCCCC/C=C\CCCCCCCCNCCCNC(=O)[C@H](O)[C@@H](O)[C@H](O[C@@H]1O[C@H](CO)[C@H](O)[C@H](O)[C@H]1O)[C@H](O)CO [Oleylaminopropyl D-Lactobionamide]	169 mm	165 mm	< 0 °C
Cocoaminopropyl D-Lactobionamide	171 mm	168 mm	< 0 °C
Dodecyl to Pentadecyloxypropyl D-Lactobionamide [C12 -C15 Oxypropyl D-Lactobionamide]	166 mm	155 mm	< 0 °C
Dodecyl to Pentadecyloxypropylaminopropyl D-Lactobionamide	173 mm	169 mm	< 0 °C
Octyl/Decyloxypropyl D-Ribonamide [C8 /C10 Oxypropyl D-Ribonamide]	217 mm	200 mm	–
dodecyl to pentadecyloxypropyl D-gluconamide [C12 -C15 Oxypropyl D-Gluconamide]	200 mm	110 mm	–
dodecyl to pentadecyloxypropylaminopropyl D-gluconamide	180 mm	176 mm	–
